Laboratory results as given in ChEMBL document CHEMBL1138173, “Synthesis and biological evaluation of photoaffinity labeled fusidic acid analogues” (2006).
Values after ≈ are worked out from the molar mass of the structure shown.

What was measured:
Format in all cases: functional
Corynebacterium xerosis = assay: Antibacterial activity against Corynebacterium xerosis FF
Staphylococcus aureus [1] = assay: Antibacterial activity against Staphylococcus aureus CJ 234 R
Staphylococcus aureus [2] = assay: Antibacterial activity against Staphylococcus aureus CJ 200
Staphylococcus aureus [3] = assay: Antibacterial activity against Staphylococcus aureus CJ 288
[4] = system: Staphylococcus epidermidis; assay: Antibacterial activity against Staphylococcus epidermidis CK 5
Staphylococcus aureus [5] = assay: Antibacterial activity against Staphylococcus aureus CJ 251
Staphylococcus aureus [6] = assay: Antibacterial activity against Staphylococcus aureus CJ 247

CC(=O)O[C@H]1C[C@@]2(C)[C@@H](C[C@@H](O)[C@H]3[C@@]4(C)CC[C@@H](O)[C@@H](C)C4CC[C@@]32C)/C1=C(\CCCCc1ccc(N=[N+]=[N-])cc1)C(=O)O (stereo partly specified)
MIC (Corynebacterium xerosis): 0.016 µg/mL (≈ 0.0263 µM)
MIC (Staphylococcus aureus [1]): 1 µg/mL (≈ 1.65 µM)
MIC (Staphylococcus aureus [2]): 1 µg/mL (≈ 1.65 µM)
MIC (Staphylococcus aureus [3]): 1 µg/mL (≈ 1.65 µM)
MIC [4]: 4 µg/mL (≈ 6.58 µM)
MIC (Staphylococcus aureus [5]): 1 µg/mL (≈ 1.65 µM)

CC(=O)O[C@H]1C[C@@]2(C)[C@@H](C[C@@H](O)[C@H]3[C@@]4(C)CC[C@@H](O)[C@@H](C)C4CC[C@@]32C)/C1=C(\CCCCc1ccc(C(=O)c2ccccc2)cc1)C(=O)O (stereo partly specified)
MIC (Corynebacterium xerosis): 0.016 µg/mL (≈ 0.0238 µM)
MIC (Staphylococcus aureus [1]): 1 µg/mL (≈ 1.49 µM)
MIC (Staphylococcus aureus [6]): 1 µg/mL (≈ 1.49 µM)
MIC (Staphylococcus aureus [2]): 4 µg/mL (≈ 5.96 µM)
MIC (Staphylococcus aureus [3]): 1 µg/mL (≈ 1.49 µM)
MIC [4]: 1 µg/mL (≈ 1.49 µM)
MIC (Staphylococcus aureus [5]): 1 µg/mL (≈ 1.49 µM)

CC(=O)O[C@H]1C[C@@]2(C)[C@@H](C[C@@H](O)[C@H]3[C@@]4(C)CC[C@@H](O)[C@@H](C)C4CC[C@@]32C)/C1=C(\CCCCc1ccc(C2(C(F)(F)F)N=N2)cc1)C(=O)O (stereo partly specified)
MIC (Corynebacterium xerosis): 0.063 µg/mL (≈ 0.0934 µM)
MIC (Staphylococcus aureus [1]): 1 µg/mL (≈ 1.48 µM)
MIC (Staphylococcus aureus [2]): 2 µg/mL (≈ 2.96 µM)
MIC (Staphylococcus aureus [3]): 1 µg/mL (≈ 1.48 µM)
MIC [4]: 1 µg/mL (≈ 1.48 µM)
MIC (Staphylococcus aureus [5]): 1 µg/mL (≈ 1.48 µM)

CC(=O)O[C@H]1C[C@@]2(C)[C@@H](C[C@@H](O)[C@H]3[C@@]4(C)CC[C@@H](O)[C@@H](C)[C@@H]4CC[C@@]32C)/C1=C(\CCC=C(C)C)C(=O)O [FUSIDIC ACID]
MIC (Corynebacterium xerosis): 0.016 µg/mL (≈ 0.031 µM)
MIC (Staphylococcus aureus [1]): < 0.063 µg/mL
MIC (Staphylococcus aureus [6]): 0.063 µg/mL (≈ 0.122 µM)
MIC (Staphylococcus aureus [2]): 0.063 µg/mL (≈ 0.122 µM)
MIC (Staphylococcus aureus [3]): < 0.063 µg/mL
MIC [4]: 0.063 µg/mL (≈ 0.122 µM)
MIC (Staphylococcus aureus [5]): < 0.063 µg/mL
